Experimental data published in BindingDB's records for doi:10.1021/jm00006a011 (Merck Sharp & Dohme Research Laboratories, 1995).

Target: Substance-P receptor (Homo sapiens, UniProt P25103)
Experiment: Binding affinity at human Tachykinin receptor 1 expressed in CHO cells by [125 I][…]-substance P displacement.

Sequence of Substance-P receptor (P25103 whole entry): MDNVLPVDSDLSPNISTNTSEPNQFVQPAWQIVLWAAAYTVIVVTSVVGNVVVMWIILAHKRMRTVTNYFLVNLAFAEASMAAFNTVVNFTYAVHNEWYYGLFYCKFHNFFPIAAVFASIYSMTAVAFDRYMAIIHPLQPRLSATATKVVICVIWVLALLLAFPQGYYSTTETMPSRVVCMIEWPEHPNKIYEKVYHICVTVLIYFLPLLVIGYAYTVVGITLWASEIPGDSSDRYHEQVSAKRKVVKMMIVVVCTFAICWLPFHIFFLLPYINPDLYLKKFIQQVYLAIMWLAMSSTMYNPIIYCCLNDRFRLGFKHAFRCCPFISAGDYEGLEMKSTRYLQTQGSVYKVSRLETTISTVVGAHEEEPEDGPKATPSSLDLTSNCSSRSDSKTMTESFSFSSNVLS

Compound: O=c1oc(Cc2c[nH]c3ccccc23)c(O)n1Cc1cc(C(F)(F)F)cc(C(F)(F)F)c1
- IC50: 22 nM
